Data reported in paper PMC4467398, “Preclinical antitumor activity of ST7612AA1: a new oral thiol-based histone deacetylase (HDAC) inhibitor” (Oncotarget, 2014).

Tested on: DOHH2 and TMD8 DLBCL cells
Assay: Gene expression profiling (HumanHT-12 v4 BeadChip, limma), ST7612AA1 300 nM 8 hrs vs DMSO
Type: cell-based, human
[1] = 300 nM, 8 hours, fold change > 1.5, adjusted p-value < 0.005

CC(=O)SCCCCC[C@H](NC(=O)[C@H]1CCC(=O)N1)C(=O)Nc1ccccc1 [ST7612AA1]
log ratio YPEL5 (probe ILMN_1711069) (300 nM 8 hrs vs DMSO): 6.99E-01 | log ratio YRDC (ILMN_2061732) (300 nM 8 hrs vs DMSO): -8.81E-01 | log ratio ZBTB42 (ILMN_3239445) (300 nM 8 hrs vs DMSO): 6.62E-01 | log ratio ZDHHC8 (probe ILMN_1789492) (300 nM 8 hrs vs DMSO): 8.85E-01 | log ratio ZFP161 (ILMN_1772522) (300 nM 8 hrs vs DMSO): -5.98E-01 | log ratio ZFX (ILMN_1687484) (300 nM 8 hrs vs DMSO): -6.10E-01 | log ratio ZMAT3 (ILMN_1654262) (300 nM 8 hrs vs DMSO): 5.95E-01 | log ratio ZMYND11 (ILMN_1754234) (300 nM 8 hrs vs DMSO): -1.27E+00 | log ratio ZNF385A (ILMN_1786722) (300 nM 8 hrs vs DMSO): 6.67E-01 | log ratio ZNF532 (ILMN_1731358) (300 nM 8 hrs vs DMSO): -8.77E-01 | log ratio ZNF689 (ILMN_1759008) (300 nM 8 hrs vs DMSO): -8.10E-01 | log ratio ZNF692 (ILMN_1800750) (300 nM 8 hrs vs DMSO): -5.98E-01 | log ratio ZNF775 (probe ILMN_1691702) (300 nM 8 hrs vs DMSO): 7.39E-01 | log ratio ZNF791 (ILMN_1758105) (300 nM 8 hrs vs DMSO): 6.65E-01 | log ratio ZNHIT1 (ILMN_1741491) (300 nM 8 hrs vs DMSO): 6.13E-01 | log ratio ZNRD1 (ILMN_1692486) (300 nM 8 hrs vs DMSO): -8.14E-01 | log ratio ZNRD1 (ILMN_2398587) (300 nM 8 hrs vs DMSO): -8.04E-01 | log ratio ZSCAN16 (ILMN_1809566) (300 nM 8 hrs vs DMSO): 6.84E-01 | log ratio ZZZ3 (ILMN_1653618) (300 nM 8 hrs vs DMSO): -7.87E-01 | log ratio probe ILMN_1862217 (no symbol) (300 nM 8 hrs vs DMSO): 6.82E-01 | log ratio probe ILMN_1865056 (no symbol) (300 nM 8 hrs vs DMSO): 5.95E-01 | log ratio probe ILMN_1880086 (no symbol) (300 nM 8 hrs vs DMSO): 6.47E-01 | log ratio probe ILMN_1886515 (no symbol given) (300 nM 8 hrs vs DMSO): -8.79E-01 | number of genes down-regulated [1]: 563 genes | number of genes up-regulated [1]: 674 genes | AveExpr.ST7612 (2000-08-31 ILMN_1776157): 9.23E-01 | log ratio (2000-08-31 ILMN_1776157): 9.23E-01 | AveExpr.ST7612 (ABHD8 ILMN_1712707): 9.18E-01 | log ratio (ABHD8 ILMN_1712707): 9.18E-01 | AveExpr.ST7612 (ACBD7 ILMN_1726388): 1.07E+00 | log ratio (ACBD7 ILMN_1726388): 1.07E+00 | AveExpr.ST7612 (ADRB2 ILMN_1695590): 1.02E+00 | log ratio (ADRB2 ILMN_1695590): 1.02E+00 | AveExpr.ST7612 (ANG ILMN_1760727): 1.06E+00 | log ratio (ANG ILMN_1760727): 1.06E+00 | AveExpr.ST7612 (ANKRD13A ILMN_1689908): 1.03E+00 | log ratio (ANKRD13A ILMN_1689908): 1.03E+00 | AveExpr.ST7612 (ATP6V0D1 ILMN_1795826): 1.00E+00 | log ratio (ATP6V0D1 ILMN_1795826): 1.00E+00 | AveExpr.ST7612 (ATP6V1A ILMN_1711516): 9.54E-01 | log ratio (ATP6V1A ILMN_1711516): 9.54E-01 | AveExpr.ST7612 (BAG3 ILMN_1659766): 1.06E+00 | log ratio (BAG3 ILMN_1659766): 1.06E+00 | AveExpr.ST7612 (BLVRA ILMN_1691436): 1.07E+00 | log ratio (BLVRA ILMN_1691436): 1.07E+00 | AveExpr.ST7612 (BMP6 ILMN_1747650): 1.06E+00 | log ratio (BMP6 ILMN_1747650): 1.06E+00 | AveExpr.ST7612 (C9orf95 ILMN_1674650): 9.57E-01 | log ratio (C9orf95 ILMN_1674650): 9.57E-01 | AveExpr.ST7612 (C16orf93 ILMN_2179726): 9.06E-01 | log ratio (C16orf93 ILMN_2179726): 9.06E-01 | AveExpr.ST7612 (CA2 ILMN_1662795): 1.03E+00 | log ratio (CA2 ILMN_1662795): 1.03E+00 | AveExpr.ST7612 (CBLB ILMN_1685580): 9.03E-01 | log ratio (CBLB ILMN_1685580): 9.03E-01 | AveExpr.ST7612 (CLEC16A ILMN_1781752): 1.06E+00 | log ratio (CLEC16A ILMN_1781752): 1.06E+00 | AveExpr.ST7612 (CPNE3 ILMN_1773576): 9.17E-01 | log ratio (CPNE3 ILMN_1773576): 9.17E-01 | AveExpr.ST7612 (CRIP2 ILMN_1694432): 1.09E+00 | log ratio (CRIP2 ILMN_1694432): 1.09E+00 | AveExpr.ST7612 (DENND5A ILMN_1785356): 1.07E+00 | log ratio (DENND5A ILMN_1785356): 1.07E+00 | AveExpr.ST7612 (DENND5A ILMN_3245413): 1.02E+00 | log ratio (DENND5A ILMN_3245413): 1.02E+00 | AveExpr.ST7612 (DNMT3B ILMN_2328972): 1.03E+00 | log ratio (DNMT3B ILMN_2328972): 1.03E+00 | AveExpr.ST7612 (EFNA1 ILMN_2371055): 1.05E+00 | log ratio (EFNA1 ILMN_2371055): 1.05E+00 | AveExpr.ST7612 (EXTL2 ILMN_1797950): 1.08E+00 | log ratio (EXTL2 ILMN_1797950): 1.08E+00 | AveExpr.ST7612 (FAM46C ILMN_1713266): 1.07E+00 | log ratio (FAM46C ILMN_1713266): 1.07E+00 | AveExpr.ST7612 (FAM89B ILMN_1804117): 1.06E+00 | log ratio (FAM89B ILMN_1804117): 1.06E+00
